# Values of other authors, collected in US10086032B2, “Method for preparing a Camellia nitidissima Chi lipid-lowering and hypoglycemic agent” (Shenzhen Violin Technology Co., Ltd., priority 2014, dated 2018).
# System: model rat with hyperlipidemia
# Settings: high dose group; lovastatin 0.01 g/kg; 43 days intragastric gavage
structure (smiles),measurement,value
CC[C@H](C)C(=O)O[C@H]1C[C@@H](C)C=C2C=C[C@H](C)[C@H](CC[C@@H]3C[C@@H](O)CC(=O)O3)[C@H]21 [lovastatin],HDL-C content of serum,enhance HDL-C content of serum in model rat with hyperlipidemia
